Experimental findings from US11440880B2, “Thalidomide analogs and methods of use” (The USA, as represented by the Secretary, Department of …, priority 2015, dated 2022) are described below.

The test system of one series is WT zebrafish embryos. Description: WT zebrafish embryo development / teratogenicity. The following applies: in words; at concentrations active in fli1:EGFP or mpo:GFP assays. It counts as in vivo, zebrafish (Danio rerio). The source says: To determine the effects of the candidate compounds on embryonic development, two in vivo model systems (developing zebrafish and chicken embryos) were utilized.
Malformations in the development of the zebrafish embryo were noted, including inhibition of eye, otic vesicle and fin development (FIGS. 7A-7F). […] Embryos were screened at concentrations previously determined, in this study, to be anti-angiogenic or anti-inflammatory in the fli1:EGFP and mpo:GFP assays respectively.
(§1) Concentrations used in the WT zebrafish and chicken embryo assays to assess for teratogenesis, were equal to or higher than those utilized in the fil1:EGFP and mpo:GFP zebrafish assays

In a further series the test system is chicken embryos. Nature of the series: Chicken embryo development / teratogenicity. It counts as in vivo, white leghorn chicken. The following applies: in words; applied at HH stage 17-18. The procedure:
Chicken Embryology: Fertilized white leghorn chicken embryos were incubated at 38° C. and staged according to Hamburger and Hamilton (HH) stages of development (1951). Embryos were tested at HH stage 17-18 (day 2.5). Following membrane removal, test compounds or vehicle control solutions were applied globally over the embryo. The eggs were sealed and the development of the embryos was monitored up to HH stage 30 (E9).
Compounds of interest were screened in chicken embryos (FIGS. 7I-7P).
as §1

Series [1] relates to rat aortic rings (microvessel outgrowth). Description: Rat aortic ring assay of angiogenesis. It counts as cell-based, Sprague Dawley rats. The following applies: 50 μM, 5 days. How it is done:
Matrigel® matrix (BD Biosciences) was defrosted overnight on ice. The wells of a 24 well plate were coated with 300 μL of the gel using frozen pipette tips. The gel was left to set at room temperature. When required, six week old male Sprague Dawley rats were euthanized by CO2 and decapitation. The blood was drained from the tissue and the descending aorta dissected. The aorta was cleaned in EBM media, the over lying fascia removed, and the tissue was sliced into 1-mm sections using a sterile scalpel and tweezers. The sections were rinsed in clean EBM then placed onto the coagulated gel. Another 300 μL of Matrigel® matrix was pipetted onto the ring and left to set for 30 minutes. EGM™-II endothelial growth medium (500 μL) was added to each well. The rings were incubated overnight at 37° C. The next day the media was removed and replaced with EBM containing compounds (50 μM) or media. TNP-470 ((Chloracetyl) carbamic acid (3R,4S,5S,6R)-5-methoxy-4-[(2R,3R)-2-methyl-3-(3-methyl-2-butenyl)oxiranyl]-1-oxaspiro[2.5]oct-6-yl ester) was used as a positive control. The rings were incubated in the compounds for 5 days. On day 5 the rings were imaged using an EVOS™ scope. The vessel outgrowth was quantified by binary conversion in Image J open-source image processing software and average outgrowth calculated (FIG. 9).

Entries after “also recorded” stand apart in the source; their conditions may differ.

On to `Nc1cccc2c1CN(C13CC4CC(CC(C4)C1)C3)C2=O` [Compound 77, 2,3-Dihydro-4-amino-2-(tricyclo[3.3.1.1^3,7]dec-1-yl)-1H-isoindol-1-one], for which the “effect on development / mortality of zebrafish embryos” value in the series with WT zebrafish embryos was “no apparent effect on the development of the zebrafish embryo”. On to `CC(N1Cc2c(N)cccc2C1=O)C12CC3CC(CC(C3)C1)C2` (stereo not drawn) [Compound 81], for which the “effect on development / mortality of chicken embryos” value in the series on chicken embryos was “hemorrhaging throughout the body and head; also recorded: growth reduction and hemorrhaging throughout the head”. In turn, `O=C1c2ccccc2CN1C12CC3CC(CC(O)(C3)C1)C2` [Compound 86, 2,3-Dihydro-2-(tricyclo[3.3.1.1^3,7]dec-1-hydroxy-3-yl)-1H-isoindol-1-one] registered a microvessel outgrowth in series [1] of 17.3%.
